# Experimental data published in PubChem BioAssay AID1329 (NMMLSC, 2008).
# Activity calls are given as the source filed them. No rule for the calls is given here.
# Target: Induced myeloid leukemia cell differentiation protein Mcl-1 (Homo sapiens) (UniProt Q07820)
# Assay: Mcl-1/Bim interaction regulators – biochemical, bead-based flow cytometry, multiplexed, human, dose response (AID 1329)
# Conditions: Bim peptide-Mcl-1 binding, MCF
# Induced myeloid leukemia cell differentiation protein Mcl-1 (Homo sapiens), sequence (Q07820 whole entry, looked up): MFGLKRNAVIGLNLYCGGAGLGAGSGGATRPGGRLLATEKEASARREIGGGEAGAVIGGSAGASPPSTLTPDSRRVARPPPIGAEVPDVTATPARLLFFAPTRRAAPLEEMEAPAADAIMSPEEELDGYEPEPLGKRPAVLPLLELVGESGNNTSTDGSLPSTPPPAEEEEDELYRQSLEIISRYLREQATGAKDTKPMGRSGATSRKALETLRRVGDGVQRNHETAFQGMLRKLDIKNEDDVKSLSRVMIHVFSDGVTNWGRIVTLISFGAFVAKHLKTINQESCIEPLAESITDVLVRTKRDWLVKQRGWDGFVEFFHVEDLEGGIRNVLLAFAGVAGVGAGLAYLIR
row,SMILES,percent span
1,Cn1cccc1CC(=O)N/N=C\c1ccccc1,inactive
2,Cc1ccc(C(=O)N/N=C2/NC(=O)CC(C(=O)Nc3ccccc3)S2)cc1 (stereo not drawn),inactive
3,COc1cc(/C=C2\S/C(=N/S(=O)(=O)c3ccc(C)cc3)NC2=O)c([N+](=O)[O-])cc1OC,inactive
4,O=C(/C=C/c1ccc(-c2ccccc2[N+](=O)[O-])o1)c1ccccc1,inactive
5,CCn1c(C)c(/C=N/Nc2nc3ccccc3s2)c2ccccc21,inactive
6,Cc1ccc(OCC(=O)NCc2ccccn2)c(Br)c1,inactive
7,C=CCn1c(C)cc(-c2csc(NC)n2)c1C,inactive
8,COc1ccc(CC(=O)Nc2ccc(-c3nc4cc(C)ccc4o3)c(O)c2)cc1OC,inactive
9,CN1C(=O)/C(=C/c2ccc(-c3ccccc3[N+](=O)[O-])o2)SC1=Nc1ccc(Cl)c(C(=O)O)c1,inactive
10,CCCn1c(SCC(=O)Nc2ccccc2-c2ccccc2)nnc1-c1ccoc1C,inactive
11,COc1ccc2nc(C)cc(SCC(=O)N/N=C/c3ccc(O)c(O)c3)c2c1,inactive
12,COc1cc(/C=N/Nc2nc3c(c(=O)n(C)c(=O)n3C)n2Cc2ccccc2)ccc1OC(=O)c1ccco1,inactive
13,Cc1ccc(-c2cc(C(=O)OCC(=O)N(C)C3CCS(=O)(=O)C3)c3ccccc3n2)o1 (stereo not drawn),inactive
14,O=C(CSc1nnc(-c2cccs2)n1Cc1ccco1)c1ccc2c(c1)OCO2,inactive
15,CCN1CCN(c2cc(C)c3cc(NC(=S)N4CCN(c5ccc(F)cc5)CC4)ccc3n2)CC1,inactive
16,CC1CCN(C2(O)C(=O)Nc3ccc(Br)cc32)CC1 (stereo not drawn),inactive
17,Cc1ccc(O)c(NC2=C(Cl)C(=O)N(Cc3ccccc3)C2=O)c1,inactive
18,CCOC(=O)c1ccc(N=c2ssnc2Cl)cc1,inactive
19,O=C(CNC(=O)c1ccco1)NCC(=O)OCc1ccccc1Br,inactive
20,COc1ccc(-c2csc(NC(=O)/C(N=Nc3ccccc3)=C(\C)O)n2)cc1,inactive
21,Cc1ccc(C2=N/C(=C/c3cccs3)C(=O)N2Nc2ccccc2)cc1,inactive
22,O=C(N/N=C/c1ccc(O)c(O)c1O)/C(=C/c1ccc([N+](=O)[O-])cc1)NC(=O)c1ccccc1,inactive
23,COC(=O)c1ccc(/C=N/NC(=O)CC(=O)NCc2cccnc2)cc1,inactive
24,Fc1cccc(Nc2nc(-c3ccncc3)nc3ccccc23)c1,inactive
25,CC1(C)Cc2c(ccc3ccccc23)/C(=C/C(=O)N2CCCCC2)N1,inactive
26,Cc1ccc(C(=O)NNC(=O)c2ccc3ncccc3c2)cc1,inactive

row,SMILES,percent span
1,CC1Nc2ccccc2C(=O)N1NS(C)(=O)=O (stereo not drawn),inactive
2,CC1CC2=C(NC(=S)NC2c2cccc(F)c2)/C(=C/c2cccc(F)c2)C1 (stereo not drawn),inactive
3,CC(C)n1nnnc1SCC(=O)N1CCN(C(=O)c2ccco2)CC1,inactive
4,CN(CCc1ccccn1)C(=O)CCC1CCCN(C(=O)NC2CCCCC2)C1 (stereo not drawn),inactive
5,N/C(=N\OC(=O)CCC1CCCC1)c1ccncc1,inactive
6,COCCn1nnnc1CN(Cc1ccco1)Cc1cc2cc3c(cc2[nH]c1=O)OCO3,inactive
7,CCN(CC)c1ccc(-c2nn3c(-c4ccccc4OC)nnc3s2)cc1,inactive
8,CCn1cc(C=C2C(=O)c3ccccc3C2=O)c2ccccc21,inactive
9,CC(NCc1ccc(-c2ccccc2)cc1)C(O)c1ccccc1 (stereo not drawn),inactive
10,CCc1cccc(CC)c1NC(=S)N1CCn2cccc2C1c1cccnc1 (stereo not drawn),inactive
11,COc1ccccc1Nc1nc(-c2c(C)nc3ncccn23)cs1,inactive
12,Cn1c(=O)c2cc(S(=O)(=O)Nc3cc(C(=O)O)cc(C(=O)O)c3)ccc2n(C)c1=O,inactive
13,O=c1c2c(n3nnnc3n1Cc1ccccc1)-c1ccccc1CC21CCCC1,inactive
14,CCCn1c(C)cc(-c2csc(N)n2)c1C,inactive
15,COC(=O)c1ccc(C)c(NC(=O)CCNC(=O)c2ccc([N+](=O)[O-])cc2)c1,inactive
16,Cc1ccc(N=Cc2c(O)n(-c3ccc4c(c3)OCO4)c(=O)c3ccccc23)cc1,inactive
17,COc1ccccc1C1=Nc2cccc3cccc(c23)N1,inactive
18,O=C(O)c1ccc(NS(=O)(=O)c2ccc3c(c2)C(=O)c2ccccc2C3=O)cc1,inactive
19,COc1ccccc1Oc1ccc2c(c1)C(=O)N(c1ccccc1)C2=O,inactive
20,CCOC(=O)C1(CC/C(C)=N\NC(N)=O)CC(C)(C)OC1=O (stereo not drawn),inactive
21,OC(COc1ccc2ccccc2c1)CN1CCCC1 (stereo not drawn),inactive
22,CC1=C2C(CCS2(=O)=O)CC2(C1)C(=O)OC(C)(C)OC2=O (stereo not drawn),inactive
23,CCOc1ccccc1NC(=O)CSc1nnc2ccc(-c3cccnc3)nn12,inactive
24,COc1ccc(NC(=O)c2cccs2)cc1,inactive
25,CN(C(=O)NC1CCCCC1)c1ccccc1,inactive
26,COc1ccc(N2CCN(C(=O)c3cc(=O)[nH]c4ccccc34)CC2)cc1,inactive

row,SMILES,percent span
1,CCNC(=O)N1c2ccc(OCC)cc2C(C)=CC1(C)C,inactive
2,COc1ccc(S(=O)(=O)NCCSc2ccccc2)cc1OC,inactive
3,COP(=O)(CC(=O)O)c1ccccc1 (stereo not drawn),inactive
4,Cc1ccc(-c2cc(-c3ccc4c(c3)OCO4)c(C#N)c(N)n2)o1,inactive
5,Cc1ccc(NC2=C(Cl)C(=O)c3ccccc3C2=O)cc1,inactive
6,Cn1cc(CN2C[C@]3(C)C[C@H]2CC(C)(C)C3)c(-c2ccc3c(c2)OCCO3)n1,inactive
7,CC(C(=O)Nc1ccc([N+](=O)[O-])cc1)N1CCN(C/C=C/c2ccccc2)CC1 (stereo not drawn),inactive
8,CCN1CCN(c2cc(C)c3cc(NC(=S)N4CCN(c5ccccc5)CC4)ccc3n2)CC1,inactive
9,COc1ccc(OC)c(-n2c(-c3ccc(C)cc3)n[nH]c2=S)c1,inactive
10,CNC(=O)CC1C(=O)N(Cc2ccccc2)C(=S)N1NC(=O)c1cccc(F)c1 (stereo not drawn),inactive
11,COc1ccc(/C=C(/C(=O)c2cccs2)N2C=CC=CC2=C(C#N)C#N)cc1,inactive
12,Cc1ccc(-c2cc(-c3ccccc3Cl)c(C#N)c(N)n2)o1,inactive
13,BrC(=C\c1ccccc1)/C=N/N1CCN(c2ccccc2)CC1,inactive
14,CCOc1cc(S(=O)(=O)Nc2ccccn2)ccc1F,inactive
15,COc1ccc(NS(=O)(=O)c2cc(NC(=O)c3ccc(C)o3)ccc2N2CCCCC2)cc1,inactive
16,Fc1ccccc1/C=C1\CCCC2=C1NC(=S)NC2c1ccccc1F (stereo not drawn),inactive
17,COc1ccc(/C=C/C(=O)Nc2sc(Cc3ccccc3)c(C)c2C(N)=O)cc1,inactive
18,COc1cc(C=Nc2cccc(C)c2)c(O)c([N+](=O)[O-])c1,inactive
19,COc1ccc(CC(=O)Nc2ccc3nc(C)sc3c2)cc1OC,inactive
20,Cc1cc(C)c2nc3nc(C)c(C)cc3c(N)c2c1,inactive
21,COc1ccc(CC(=O)Nc2ccc(C(=O)Nc3nccs3)cc2)cc1OC,inactive
22,Cc1ccc(C)c(Oc2ncnc(N)c2[N+](=O)[O-])c1,inactive
23,c1csc(C2=Nn3c(nnc3-c3ccncc3)SC2)c1,inactive
24,Cc1ccc(-c2cc(-c3ccc(F)cc3)c(C#N)c(N)n2)o1,inactive
25,COC(=O)Cc1ccc(NC(=S)N2CCN(c3cccc(O)c3)CC2)cc1,inactive
26,CNC(=S)N(Cc1cccs1)Cc1cc2ccc(OC)cc2[nH]c1=O,inactive

row,SMILES,percent span
1,COc1ccc(NC(=O)c2c(F)cccc2F)cc1S(=O)(=O)Nc1ccc(Br)cc1,inactive
2,CCOc1cc(CNc2ccc(N(C)C)cc2)cc(Br)c1OCC(=O)NC(C)(C)C,inactive
3,CCOc1cc(CNc2ccc(N3CCCCC3)cc2)cc(Br)c1OCC(=O)NC(C)(C)C,inactive
4,Cc1ccnc(NS(=O)(=O)c2ccc(NS(=O)(=O)c3cccs3)cc2)n1,inactive
5,c1ccc(C2=Nc3cccc4cccc(c34)N2)cc1,inactive
6,N#Cc1cc(-c2ccccc2)nn1-c1ccccc1,inactive
7,COc1ccc(NC(=O)/C(Cl)=C(/Cl)S(=O)Cc2ccccc2)cn1 (stereo not drawn),inactive
8,O=C(Cc1ccc(-c2ccccc2)cc1)NC1CCCC1,inactive
9,O=C1CSc2ccc(C(=O)Nc3cccc(S(=O)(=O)Nc4ccc(Br)cc4)c3)cc2N1,inactive
10,O=C(OCC(=O)c1ccc[nH]1)c1ccccc1,inactive
11,O=C(O)C1=C[C@H](C2CC2)C[C@H](OCCCCO)O1,inactive
12,COc1ccc(C(=O)Nc2ccc(C(=O)OCC(=O)c3cccc4ccccc34)cc2)cc1,inactive
13,Cc1ccc(-c2nc3c(c(=O)[nH]c(=O)n3Cc3ccccc3)n2C)o1,inactive
14,Cn1c(=O)c(C(=O)COC(=O)c2cc(-c3ccco3)nc3ccccc23)c(N)n(CC2CC2)c1=O,inactive
15,Cc1ccc(CC(=O)OCCNC(=O)c2cccnc2)cc1,inactive
16,Cc1ccccc1-c1nc(-c2ccc(NC(=O)c3ccc4c(c3)OCO4)cc2)no1,inactive
17,O=C(NCCO)c1ccc2nc(-c3ccco3)c(-c3ccco3)nc2c1,inactive
18,CCN1/C(=C\c2ccc3cc(C)ccc3[n+]2CC)Sc2cc(C)c(C)cc21,inactive
19,CC1=CC(=O)c2c(O)ccc(O)c2C1=O,inactive
20,Nc1ccc(-c2cn3cccnc3n2)cc1,inactive
21,Cc1cccc(C(=O)N2CCC(c3nc(-c4ccc(S(=O)(=O)N5CCOCC5)cc4)no3)CC2)c1,inactive
22,CCc1cccc(CC)c1-n1c(-c2cccnc2)n[nH]c1=S,inactive
23,O=S1(=O)N=C(N(CCO)/N=C/c2ccncc2)c2ccccc21,inactive
24,O=C(Nc1nccs1)c1ccc(COc2ccc(F)cc2)o1,inactive
25,O=C(O)c1cccc(NC2=C(Cl)C(=O)c3ccccc3C2=O)c1,inactive
